We go through three compounds from paper PMC6366416, “Synthesis and in vitro anticancer activity of certain novel 1-(2-methyl-6-arylpyridin-3-yl)-3-phenylureas as apoptosis-inducing agents” (Journal of Enzyme Inhibition and Medicinal Chemistry, 2019).

Series [1] relates to HCT-116 cell line. Description: MTT anti-proliferative assay. It counts as cell-based. To be noted: Homo sapiens, 48 h of incubation, mean ± SD of three experiments. As to the method:
(§1) A549 (non-small cell lung cancer cell line) and HCT-116 (human colon cancer cell line), were obtained from American Type Culture Collection (Manassas, VA, USA). The cells were maintained in Dulbecco’s Modified Eagle’s Medium (DMEM) (Sigma-Aldrich, St. Louis, MO), and supplemented with 10% heat-inactivated FBS (Hyclone), 10 μg/mL of insulin (Manufacturer, Sigma, St. Louis, MO, USA), and 1% penicillin-streptomycin. MTT assay[29] was adopted to assess the in vitro antitumor activity of the newly synthesized pyridines 5a–l according to the reported procedures, using Doxorubicin as a standard treatment. Experimental conditions were tested using three replicates (three wells of the 96-well plate per experimental condition) and all experiments were carried out in triplicates. IC50 values were calculated by the use of the equation for Boltzman sigmoidal concentration–response curve using the nonlinear regression fitting models by Graph Pad, Prism version 5 (GraphPad Software Inc., La Jolla, CA).
(§2) All newly synthesized pyridines 5a–l were examined for their anti-proliferative activity towards two cancer cell lines: non-small cell lung cancer A549 cell line and colon cancer HCT-116 cell line. The MTT colorimetric assay was adopted to assess the anti-proliferative activity as described by Mosmann[29]. Doxorubicin was used as a control in this assay.
Background: Formazan colour is commonly taken as a measure of viable cells.

The test system of series [2] is A549 cell line. The series can be described thus: MTT anti-proliferative assay. Type of series: cell-based. To be noted: Homo sapiens, 48 h of incubation, mean ± SD of three experiments. As to the method:
as §1, §2

For series [3], the system named is WI-38 cell line. Description: MTT cytotoxicity towards non-tumorigenic cells. It counts as cell-based, human. The conditions noted are these: for IC50: WI-38, MTT, non-tumorigenic human lung fibroblast, mean ± SD of three experiments; for S. I. WI-38/A549: selectivity index, IC50 WI-38 / IC50 A549. As to the method: The cytotoxic activity of all synthesized pyridines 5a–l were assessed against non-tumorigenic human lung fibroblast WI-38 cell line to investigate their safety, using the MTT colorimetric assay.

Usually IC50 stands for the point on the concentration scale where inhibition reaches its midpoint. The low end stands for higher potency, the high end for lower potency. For the compound `COc1cccc2c1C(=O)c1c(O)c3c(c(O)c1C2=O)C[C@@](O)(C(=O)CO)C[C@@H]3O[C@H]1C[C@H](N)[C@H](O)[C@H](C)O1` [Doxorubicin, reference compound], the results for the IC50 in series [1] and in series [2] were 3.1 ± 0.22 µM and 2.93 ± 0.28 µM, respectively.
The term melting point denotes the temperature, or range, at which the solid turns liquid. For the compound `Cc1nc(-c2cccs2)ccc1NC(=O)Nc1ccc2c(c1)OCO2` [Compound 5k, 1-(Benzo[d][1, 3]dioxol-5-yl)-3-(2-methyl-6-(thiophen-2-yl)pyridin-3-yl)urea], the melting point lay within 239 to 241 °C. Besides, in series [3], 139 ± 10.4 µM corresponded to half-maximal inhibition (IC50) and the “S. I. WI-38/A549” value was determined as 7.2. Also, the IC50 in series [1] turned out to be 16.4 ± 1.3 µM. Half-maximal inhibition in series [2] (IC50) was put at 19.2 ± 2.05 µM.
In turn, `Cc1nc(-c2ccc(F)cc2)ccc1NC(=O)Nc1cc(C(F)(F)F)cc(C(F)(F)F)c1` [Compound 5b, 1-(3,5-Bis(trifluoromethyl)phenyl)-3-(6-(4-fluorophenyl)-2-methylpyridin-3-yl)urea] yielded a melting point of 235 to 237 °C. Besides, in series [3], the IC50 amounted to 151 ± 8.12 µM and the “S. I. WI-38/A549” value is given as 6.3. The half-maximal inhibitory concentration (IC50) in series [1] came out at 16 ± 1.52 µM. Further, in series [2], the IC50 was 24.1 ± 1.78 µM.
